Measurements: patent US6613901B2, “2-aminoalkylaminoquinolines as dopamine D4 ligands” (Neurogen Corporation, priority 1998, dated 2003)
pKi: −log10 of the molar value. Where a name gives a salt, the structure may show the parent alone.

Assays:
D4 receptors = D4 receptors (Chlorocebus aethiops, UniProt A0A0D9REG7); assay: D4 receptor binding assay (3H-YM 09151-2); set-up: species or system African Green monkey; conditions: Table 1; COS cell pellets with recombinant receptor, 0.5 nM 3H-YM 09151-2; read-out: D4 K1
D4 receptors, sequence (A0A0D9REG7 entry or part of it): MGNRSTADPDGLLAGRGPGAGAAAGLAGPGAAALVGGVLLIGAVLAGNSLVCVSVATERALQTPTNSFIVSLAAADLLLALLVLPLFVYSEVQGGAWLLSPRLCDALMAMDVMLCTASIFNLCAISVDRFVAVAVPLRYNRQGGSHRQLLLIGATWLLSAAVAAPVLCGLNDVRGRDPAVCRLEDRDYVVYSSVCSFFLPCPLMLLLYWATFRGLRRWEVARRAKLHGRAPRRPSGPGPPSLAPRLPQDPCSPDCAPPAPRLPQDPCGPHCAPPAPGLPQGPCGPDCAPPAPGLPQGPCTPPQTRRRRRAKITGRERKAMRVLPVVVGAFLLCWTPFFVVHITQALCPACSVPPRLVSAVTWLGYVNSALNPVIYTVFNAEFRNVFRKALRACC
Procedure: (§1) Assay for D2 and D4 Receptor Binding Activity
(§2) Pellets of COS cells containing recombinantly produced D2 or D4 receptors from African Green monkey were used for the assays. The sample is homogenized in 100 volumes (w/vol) of 0.05 M Tris HCl buffer at 4° C. and pH 7.4. The sample is then centrifuged at 30,000×g and resuspended and rehomogenized. The sample is then centrifuged as described and the final tissue sample is frozen until use. The tissue is resuspended 1:20 (wt/vol) in 0.05 M Tris HCl buffer containing 100 mM NaCl.

M2 Muscarinic subtype = target: T1, M2 Muscarinic subtype (Homo sapiens, UniProt P08172); assay: M2 Muscarinic subtype assay per U.S. Pat. No. 5,093,333; type: binding; conditions: Table 1
T1 sequence (P08172 1-466): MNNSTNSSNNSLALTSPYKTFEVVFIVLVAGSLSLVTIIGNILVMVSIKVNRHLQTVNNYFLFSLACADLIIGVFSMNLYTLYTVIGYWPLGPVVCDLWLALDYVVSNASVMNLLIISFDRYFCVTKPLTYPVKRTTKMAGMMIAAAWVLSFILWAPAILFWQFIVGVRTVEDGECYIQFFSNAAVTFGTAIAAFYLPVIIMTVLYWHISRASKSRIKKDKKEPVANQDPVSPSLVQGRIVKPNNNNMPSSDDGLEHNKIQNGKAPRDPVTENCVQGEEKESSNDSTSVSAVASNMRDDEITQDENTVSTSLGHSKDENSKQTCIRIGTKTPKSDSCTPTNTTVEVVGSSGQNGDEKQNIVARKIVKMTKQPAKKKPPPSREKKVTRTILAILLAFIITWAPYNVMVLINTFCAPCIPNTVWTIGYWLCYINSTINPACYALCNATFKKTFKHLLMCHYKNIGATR

M1 Muscarinic subtype = target: T2, M1 Muscarinic subtype (Homo sapiens, UniProt P11229); assay: M1 Muscarinic subtype assay per U.S. Pat. No. 5,093,333; type: binding; conditions: Table 1
T2 sequence (P11229 1-460): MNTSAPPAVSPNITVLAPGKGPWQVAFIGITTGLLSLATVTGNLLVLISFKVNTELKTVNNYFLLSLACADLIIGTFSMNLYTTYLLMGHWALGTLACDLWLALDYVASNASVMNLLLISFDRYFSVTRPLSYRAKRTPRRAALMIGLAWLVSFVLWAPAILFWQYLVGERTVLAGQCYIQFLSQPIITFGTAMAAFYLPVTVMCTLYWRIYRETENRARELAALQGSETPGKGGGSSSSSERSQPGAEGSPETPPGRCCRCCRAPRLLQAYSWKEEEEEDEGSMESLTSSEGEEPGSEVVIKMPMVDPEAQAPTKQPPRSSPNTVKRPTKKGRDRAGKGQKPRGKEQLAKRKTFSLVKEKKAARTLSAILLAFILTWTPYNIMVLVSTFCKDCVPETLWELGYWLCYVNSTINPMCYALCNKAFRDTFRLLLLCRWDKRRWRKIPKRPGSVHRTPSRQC

D2 receptors = target: T3, D2 receptors (Chlorocebus aethiops, UniProt P52702); assay: D2 receptor binding assay (3H-YM 09151-2); set-up: species or system African Green monkey; conditions: Table 1; COS cell pellets with recombinant receptor, 0.5 nM 3H-YM 09151-2
T3 construct: expressed in transfected cells; host or cells: COS cells
T3 sequence (P52702 whole entry): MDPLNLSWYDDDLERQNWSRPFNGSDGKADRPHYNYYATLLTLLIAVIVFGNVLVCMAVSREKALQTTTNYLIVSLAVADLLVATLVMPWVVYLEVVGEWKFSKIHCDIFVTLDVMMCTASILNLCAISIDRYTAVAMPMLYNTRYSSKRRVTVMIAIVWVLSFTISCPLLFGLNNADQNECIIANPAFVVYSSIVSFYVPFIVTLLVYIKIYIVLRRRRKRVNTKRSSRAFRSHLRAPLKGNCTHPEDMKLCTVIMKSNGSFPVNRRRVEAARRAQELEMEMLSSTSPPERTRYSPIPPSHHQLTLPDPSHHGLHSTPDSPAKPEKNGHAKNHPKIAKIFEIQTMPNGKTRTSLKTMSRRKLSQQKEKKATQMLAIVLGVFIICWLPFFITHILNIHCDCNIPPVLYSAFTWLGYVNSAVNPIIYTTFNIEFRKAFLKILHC
Procedure: as §1, §2

| M2 (M2 Muscarinic subtype) | M1 (M1 Muscarinic subtype) | melting point | Molecule | pKi (D4 receptors) | pKi (D2 receptors) |
| --- | --- | --- | --- | --- | --- |
| – | – | – | (4-methyl(2-quinolyl))(3-(4-(pyrimidin-2-yl)piperazinyl)propyl)amine [Compound 22] | 8.00 | 5.48 |
| – | – | 247 °C | OC1(c2ccccc2)CCN(CCCNC2=Nc3ccccc3CC2)CC1 (as salt: hydrobromid) | – | – |
| – | – | – | c1ccc(N2CCN(CCNC3=Nc4ccccc4CC3)CC2)nc1 [Compound 2, 2-3,4-dihydroquinolyl(2-(4-(2-pyridyl)piperazinyl)ethyl)amine] | – | < 7.00 |
| – | – | > 260 °C | OC1(c2ccc(Cl)cc2)CCN(CCCNC2=Nc3ccccc3CC2)CC1 (as salt: hydrobromid) | – | – |
| – | – | – | (3-(4-(2,3-dimethylphenyl)piperazinyl)propyl)-2-quinolylamine [Compound 21] | 7.66 | < 7.00 |
| 299 nM | 264 nM | – | c1cnc(N2CCN(CCNc3ccc4ccccc4n3)CC2)nc1 [Compound 1, (2-(4-pyrimidin-2-ylpiperazinyl)ethyl)-2-quinolylamine] | – | 5.57 |
| 144 nM | 128 nM | – | Fc1cnc(N2CCN(CCNC3=Nc4ccccc4CC3)CC2)nc1 [Compound 3, 2-3,4-dihydroquinolyl(2-(4-(5-fluoropyrimidin-2-yl)piperazinyl)ethyl)amine] | – | – |

| Molecule | M2 (M2 Muscarinic subtype) | M1 (M1 Muscarinic subtype) | melting point | pKi (D4 receptors) | pKi (D2 receptors) |
| --- | --- | --- | --- | --- | --- |
| (4methyl(2-quinolyl))(2-(4-pyrimidin-2-ylpiperazinyl)ethyl)amine hydrobromide [Compound 11] | 246 nM | 178 nM | – | 8.00 | – |
